Source: PubChem BioAssay AID328 (DTP/NCI, 2004)
Values joined by “and” are separate entries in the source; they are usually repeats but may differ in a detail not shown here. Equal entries are not always repeated. Toxic doses and inconclusive results are not listed.

System: BDF1 mice, P388 leukemia ip, median survival T/C
Assay: NCI In Vivo Anticancer Drug Screen. Data for tumor model P388 Leukemia (intraperitoneal) in B6D2F1 (BDF1) mice
Settings: endpoint: median survival time, higher = longer survival
Outline: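 Mice carrying the transplantable tumour receive compound or vehicle. Survival is followed in each arm, and the treated measure is divided by the vehicle measure.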

[1] = dose: 25.0 mg/kg/injection, schedule: Q01DX009 (ip), vehicle: saline with Tween-80
[2] = dose: 50.0 mg/kg/injection, schedule: Q01DX009 (ip), vehicle: saline with Tween-80
[3] = dose: 100.0 mg/kg/injection, schedule: Q01DX009 (ip), vehicle: saline with Tween-80
[4] = dose: 200.0 mg/kg/injection, schedule: Q01DX009 (ip), vehicle: saline with Tween-80
[5] = dose: 400.0 mg/kg/injection, schedule: Q01DX009 (ip), vehicle: saline with Tween-80
[6] = dose: 100.0 mg/kg/injection, schedule: Q04DX003 (ip), vehicle: Klucel (hydroxypropylcellulose) (HPC)
[7] = dose: 200.0 mg/kg/injection, schedule: Q04DX003 (ip), vehicle: Klucel (hydroxypropylcellulose) (HPC)
[8] = dose: 400.0 mg/kg/injection, schedule: Q04DX003 (ip), vehicle: Klucel (hydroxypropylcellulose) (HPC)
[9] = dose: 100.0 mg/kg/injection, schedule: Q04DX003 (ip), vehicle: saline

## Oc1cc(N2CC2)c(O)cc1N1CC1
dose: 0.02 mg/kg/injection, schedule: Q01DX009 (ip), vehicle: saline
  T/C: 150 % of control
dose: 0.03 mg/kg/injection, schedule: Q01DX009 (ip), vehicle: saline
  T/C: 154 % of control
dose: 0.1 mg/kg/injection, schedule: Q01DX009 (ip), vehicle: saline
  T/C: 171 % of control
dose: 0.13 mg/kg/injection, schedule: Q01DX009 (ip), vehicle: saline
  T/C: 200 % of control and 213 % of control
dose: 0.2 mg/kg/injection, schedule: Q01DX009 (ip), vehicle: saline
  T/C: 186 % of control and 204 % of control
dose: 0.3 mg/kg/injection, schedule: Q01DX009 (ip), vehicle: saline
  T/C: 204 % of control
dose: 0.44 mg/kg/injection, schedule: Q01DX009 (ip), vehicle: saline
  T/C: 200 % of control
dose: 0.47 mg/kg/injection, schedule: Q04DX003 (ip), vehicle: saline
  T/C: 150 % of control
dose: 0.68 mg/kg/injection, schedule: Q01DX009 (ip), vehicle: saline
  T/C: 263 % of control
dose: 0.72 mg/kg/injection, schedule: Q04DX003 (ip), vehicle: saline
  T/C: 200 % of control
dose: 1.0 mg/kg/injection, schedule: Q01DX009 (ip), vehicle: saline
  T/C: 268 % of control
dose: 1.08 mg/kg/injection, schedule: Q04DX003 (ip), vehicle: saline
  T/C: 220 % of control
dose: 1.65 mg/kg/injection, schedule: Q04DX003 (ip), vehicle: saline
  T/C: 225 % of control
dose: 2.5 mg/kg/injection, schedule: Q04DX003 (ip), vehicle: saline
  T/C: 225 % of control and 150 % of control
dose: 3.75 mg/kg/injection, schedule: Q04DX003 (ip), vehicle: saline
  T/C: 90 % of control
dose: 16.0 micrograms/kg/injection, schedule: Q01DX009 (ip), vehicle: saline
  T/C: 105 % of control
dose: 25.0 micrograms/kg/injection, schedule: Q01DX009 (ip), vehicle: saline
  T/C: 102 % of control
dose: 38.0 micrograms/kg/injection, schedule: Q01DX009 (ip), vehicle: Klucel (hydroxypropylcellulose) (HPC)
  T/C: 190 % of control
dose: 58.0 micrograms/kg/injection, schedule: Q01DX009 (ip), vehicle: Klucel (hydroxypropylcellulose) (HPC)
  T/C: 200 % of control
dose: 88.0 micrograms/kg/injection, schedule: Q01DX009 (ip), vehicle: saline
  T/C: 179 % of control
dose: 132.0 micrograms/kg/injection, schedule: Q01DX009 (ip), vehicle: saline
  T/C: 120 % of control

## O=C/C=C/c1cccc([N+](=O)[O-])c1
[1]
  T/C: 110 % of control
[2]
  T/C: 115 % of control
[3]
  T/C: 119 % of control

## O=C(N1CCCC1)C(F)(F)C(F)(F)C(F)(F)F
[2]
  T/C: 90 % of control
[3]
  T/C: 99 % of control

## O=C1C(C2OC2c2ccccc2)CCCC1C1OC1c1ccccc1 (centres undefined)
dose: 100.0 mg/kg/injection, schedule: Q04DX003 (ip), vehicle: saline sonified
  T/C: 100 % of control
[4]
  T/C: 91 % of control
dose: 200.0 mg/kg/injection, schedule: Q04DX003 (ip), vehicle: saline sonified
  T/C: 95 % of control
[5]
  T/C: 87 % of control
dose: 400.0 mg/kg/injection, schedule: Q04DX003 (ip), vehicle: saline sonified
  T/C: 95 % of control

## C=CC(C)(O)/C=C/C=C(\C)C(CC1OC1(C)C)OC(=O)/C(C)=C\C (centres undefined)
dose: 0.78 mg/kg/injection, schedule: Q01DX009 (ip), vehicle: saline
  T/C: 106 % of control
dose: 1.56 mg/kg/injection, schedule: Q01DX009 (ip), vehicle: saline
  T/C: 95 % of control
dose: 3.13 mg/kg/injection, schedule: Q01DX009 (ip), vehicle: saline
  T/C: 95 % of control
dose: 6.25 mg/kg/injection, schedule: Q01DX009 (ip), vehicle: saline
  T/C: 113 % of control

## CC(=O)Oc1ccc(C2(c3ccc(OC(C)=O)cc3)C(=O)Nc3ccccc32)cc1
[6]
  T/C: 95 % of control
[7]
  T/C: 104 % of control
[8]
  T/C: 100 % of control

## CC(=O)Nc1cc(NC(C)=O)cc(N(CCO)CCO)c1
dose: 3.12 mg/kg/injection, schedule: Q01DX009 (ip), vehicle: water
  T/C: 99 % of control
dose: 6.25 mg/kg/injection, schedule: Q01DX009 (ip), vehicle: water
  T/C: 90 % of control and 111 % of control
dose: 12.5 mg/kg/injection, schedule: Q01DX009 (ip), vehicle: water
  T/C: 93 % of control and 101 % of control
dose: 25.0 mg/kg/injection, schedule: Q01DX009 (ip), vehicle: water
  T/C: 97 % of control and 101 % of control
dose: 25.0 mg/kg/injection, schedule: Q04DX003 (ip), vehicle: water
  T/C: 89 % of control
dose: 50.0 mg/kg/injection, schedule: Q01DX009 (ip), vehicle: water
  T/C: 117 % of control
dose: 50.0 mg/kg/injection, schedule: Q04DX003 (ip), vehicle: water
  T/C: 100 % of control
dose: 100.0 mg/kg/injection, schedule: Q04DX003 (ip), vehicle: water
  T/C: 104 % of control
dose: 200.0 mg/kg/injection, schedule: Q04DX003 (ip), vehicle: water
  T/C: 112 % of control
dose: 400.0 mg/kg/injection, schedule: Q04DX003 (ip), vehicle: water
  T/C: 108 % of control

## Cc1cc(=O)[nH]o1
[2]
  T/C: 108 % of control
[3]
  T/C: 103 % of control
[4]
  T/C: 103 % of control
[5]
  T/C: 113 % of control

## ClC1=C(Cl)C2(Cl)C3COCC3C1(Cl)C2(Cl)Cl (centres undefined)
dose: 100.0 mg/kg/injection, schedule: Q01DX001 (ip), vehicle: Klucel (hydroxypropylcellulose) (HPC)
  T/C: 113 % of control
[6]
  T/C: 104 % of control
dose: 200.0 mg/kg/injection, schedule: Q01DX001 (ip), vehicle: Klucel (hydroxypropylcellulose) (HPC)
  T/C: 113 % of control
[7]
  T/C: 100 % of control and 108 % of control
dose: 400.0 mg/kg/injection, schedule: Q01DX001 (ip), vehicle: Klucel (hydroxypropylcellulose) (HPC)
  T/C: 104 % of control
[8]
  T/C: 100 % of control

## COc1ccc(NCNc2ccc(OC)cc2)cc1
dose: 25.0 mg/kg/injection, schedule: Q04DX003 (ip), vehicle: Klucel (hydroxypropylcellulose) (HPC)
  T/C: 110 % of control
dose: 50.0 mg/kg/injection, schedule: Q04DX003 (ip), vehicle: Klucel (hydroxypropylcellulose) (HPC)
  T/C: 105 % of control
[6]
  T/C: 110 % of control

## C=C1C(C2(C)C(OC(C)=O)CC(=O)OC(C)(COC(C)=O)C2CC(=O)OC)C(OC=O)C(OC(=O)C(O)C(C)CC)C2(C)C(c3ccoc3)CC(=O)C12O (centres undefined)
dose: 3.75 mg/kg/injection, schedule: Q01DX009 (ip), vehicle: Klucel (hydroxypropylcellulose) (HPC)
  T/C: 94 % of control
dose: 7.5 mg/kg/injection, schedule: Q01DX009 (ip), vehicle: Klucel (hydroxypropylcellulose) (HPC)
  T/C: 93 % of control

## NNC(=O)c1ccc(Cl)cc1Nc1cccc(Cl)c1
dose: 50.0 mg/kg/injection, schedule: Q01DX001 (ip), vehicle: saline with Tween-80
  T/C: 100 % of control
dose: 100.0 mg/kg/injection, schedule: Q01DX001 (ip), vehicle: saline with Tween-80
  T/C: 100 % of control
dose: 200.0 mg/kg/injection, schedule: Q01DX001 (ip), vehicle: saline with Tween-80
  T/C: 104 % of control

## CS(=O)(=O)ON1C(=O)c2ccccc2C1=O
[9]
  T/C: 120 % of control

## CCN(CC)C1=C(N(CC)CC)C(N(CC)CC)=C(N(CC)CC)C1=O.[C-]#[O+].[C-]#[O+].[C-]#[O+].[Fe]
[6]
  T/C: 101 % of control
[7]
  T/C: 91 % of control
[8]
  T/C: 115 % of control

## CCCCN(CCCC)CC(O)c1cc(-c2ccc(Cl)c(Cl)c2)cc2cc(Cl)ccc12 (centres undefined)
dose: 12.5 mg/kg/injection, schedule: Q01DX009 (ip), vehicle: saline with Tween-80
  T/C: 99 % of control
[1]
  T/C: 99 % of control
[2]
  T/C: 92 % of control and 97 % of control

## CNC(=O)c1ccccc1Sc1ccccc1
[2]
  T/C: 104 % of control
[3]
  T/C: 98 % of control
[4]
  T/C: 106 % of control

## C(/C=C\c1ccccc1)=Nc1ccccc1
dose: 25.0 mg/kg/injection, schedule: Q01DX009 (ip), vehicle: saline
  T/C: 91 % of control
dose: 25.0 mg/kg/injection, schedule: Q04DX003 (ip), vehicle: saline
  T/C: 95 % of control
dose: 50.0 mg/kg/injection, schedule: Q01DX009 (ip), vehicle: saline
  T/C: 95 % of control
dose: 50.0 mg/kg/injection, schedule: Q04DX003 (ip), vehicle: saline
  T/C: 100 % of control
dose: 88.0 mg/kg/injection, schedule: Q01DX009 (ip), vehicle: saline with Tween-80
  T/C: 105 % of control
dose: 100.0 mg/kg/injection, schedule: Q01DX009 (ip), vehicle: saline
  T/C: 104 % of control
dose: 100.0 mg/kg/injection, schedule: Q04DX003 (ip), vehicle: saline with Tween-80
  T/C: 104 % of control
[9]
  T/C: 100 % of control
dose: 132.0 mg/kg/injection, schedule: Q01DX009 (ip), vehicle: saline with Tween-80
  T/C: 110 % of control
dose: 200.0 mg/kg/injection, schedule: Q04DX003 (ip), vehicle: saline with Tween-80
  T/C: 118 % of control
dose: 300.0 mg/kg/injection, schedule: Q01DX009 (ip), vehicle: saline with Tween-80
  T/C: 110 % of control
[5]
  T/C: 150 % of control
dose: 400.0 mg/kg/injection, schedule: Q04DX003 (ip), vehicle: saline with Tween-80
  T/C: 118 % of control
